In ChEMBL document CHEMBL1136070, “Design and synthesis of phosphotyrosine mimetics” (Bioorg Med Chem Lett, 2003):

How the values were obtained:
[1] = target: Receptor-type tyrosine-protein phosphatase C (CD45) (Homo sapiens) (UniProt P08575); experiment: Compound was tested for inhibition of CD45 tyrosine phosphatase at a concentration of 10 uM in fluorometric assay using DiFMUP
[2] = target: T1, Tyrosine-protein phosphatase non-receptor type 2 (Homo sapiens) (UniProt P17706); experiment: Compound was tested for inhibition of T-cell protein tyrosine phosphatase TC-PTP at a concentration of 10 uM in fluorometric assay using DiFMUP
T1 sequence (whole entry): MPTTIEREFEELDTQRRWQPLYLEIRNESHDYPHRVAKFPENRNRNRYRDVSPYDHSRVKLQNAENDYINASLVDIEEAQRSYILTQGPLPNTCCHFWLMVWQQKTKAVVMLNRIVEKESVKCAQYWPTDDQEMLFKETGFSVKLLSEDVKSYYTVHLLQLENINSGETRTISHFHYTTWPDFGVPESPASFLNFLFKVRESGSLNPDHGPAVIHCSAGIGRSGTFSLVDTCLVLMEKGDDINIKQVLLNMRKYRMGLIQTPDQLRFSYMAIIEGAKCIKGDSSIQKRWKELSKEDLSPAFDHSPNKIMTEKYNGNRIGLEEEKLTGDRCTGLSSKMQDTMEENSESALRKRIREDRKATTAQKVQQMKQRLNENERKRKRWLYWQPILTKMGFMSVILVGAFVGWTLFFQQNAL

[3] = target: Receptor-type tyrosine-protein phosphatase F (Homo sapiens) (UniProt P10586); experiment: Compound was tested for inhibition of Lar tyrosine phosphatase at a concentration of 10 uM in fluorometric assay using DiFMUP
[4] = target: T2, Tyrosine-protein phosphatase non-receptor type 1 (Homo sapiens) (UniProt P18031); experiment: Compound was tested for inhibition of Protein-tyrosine phosphatase 1B at a concentration of 10 uM in fluorometric assay using DiFMUP
T2 sequence (whole entry): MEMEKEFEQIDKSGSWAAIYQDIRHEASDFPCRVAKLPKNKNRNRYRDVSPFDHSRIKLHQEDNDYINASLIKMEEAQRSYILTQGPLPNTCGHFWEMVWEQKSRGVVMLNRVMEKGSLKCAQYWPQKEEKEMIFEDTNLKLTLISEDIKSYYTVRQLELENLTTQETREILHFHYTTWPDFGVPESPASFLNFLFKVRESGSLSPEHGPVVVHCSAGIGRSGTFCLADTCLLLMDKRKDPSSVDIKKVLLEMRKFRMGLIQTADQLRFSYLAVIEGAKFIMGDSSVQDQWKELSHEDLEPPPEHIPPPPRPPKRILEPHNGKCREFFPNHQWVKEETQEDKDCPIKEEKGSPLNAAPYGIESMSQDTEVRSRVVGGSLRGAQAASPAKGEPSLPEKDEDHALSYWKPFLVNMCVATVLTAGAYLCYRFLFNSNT

[5] = target: T1, Tyrosine-protein phosphatase non-receptor type 2 (Homo sapiens); experiment: Compound was tested for inhibition of T-cell protein tyrosine phosphatase TC-PTP at a concentration of 100 uM in fluorometric assay using DiFMUP
[6] = target: Receptor-type tyrosine-protein phosphatase C (CD45) (Homo sapiens) (UniProt P08575); experiment: Compound was tested for inhibition of CD45 tyrosine phosphatase at a concentration of 100 uM in fluorometric assay using DiFMUP
[7] = target: Receptor-type tyrosine-protein phosphatase F (Homo sapiens) (UniProt P10586); experiment: Compound was tested for inhibition of Lar tyrosine phosphatase at a concentration of 100 uM in fluorometric assay using DiFMUP
[8] = target: T2, Tyrosine-protein phosphatase non-receptor type 1 (Homo sapiens); experiment: Compound was tested for inhibition of Protein-tyrosine phosphatase 1B at a concentration of 100 uM in fluorometric assay using DiFMUP

Sequence of Receptor-type tyrosine-protein phosphatase F (Homo sapiens) (P10586 whole entry): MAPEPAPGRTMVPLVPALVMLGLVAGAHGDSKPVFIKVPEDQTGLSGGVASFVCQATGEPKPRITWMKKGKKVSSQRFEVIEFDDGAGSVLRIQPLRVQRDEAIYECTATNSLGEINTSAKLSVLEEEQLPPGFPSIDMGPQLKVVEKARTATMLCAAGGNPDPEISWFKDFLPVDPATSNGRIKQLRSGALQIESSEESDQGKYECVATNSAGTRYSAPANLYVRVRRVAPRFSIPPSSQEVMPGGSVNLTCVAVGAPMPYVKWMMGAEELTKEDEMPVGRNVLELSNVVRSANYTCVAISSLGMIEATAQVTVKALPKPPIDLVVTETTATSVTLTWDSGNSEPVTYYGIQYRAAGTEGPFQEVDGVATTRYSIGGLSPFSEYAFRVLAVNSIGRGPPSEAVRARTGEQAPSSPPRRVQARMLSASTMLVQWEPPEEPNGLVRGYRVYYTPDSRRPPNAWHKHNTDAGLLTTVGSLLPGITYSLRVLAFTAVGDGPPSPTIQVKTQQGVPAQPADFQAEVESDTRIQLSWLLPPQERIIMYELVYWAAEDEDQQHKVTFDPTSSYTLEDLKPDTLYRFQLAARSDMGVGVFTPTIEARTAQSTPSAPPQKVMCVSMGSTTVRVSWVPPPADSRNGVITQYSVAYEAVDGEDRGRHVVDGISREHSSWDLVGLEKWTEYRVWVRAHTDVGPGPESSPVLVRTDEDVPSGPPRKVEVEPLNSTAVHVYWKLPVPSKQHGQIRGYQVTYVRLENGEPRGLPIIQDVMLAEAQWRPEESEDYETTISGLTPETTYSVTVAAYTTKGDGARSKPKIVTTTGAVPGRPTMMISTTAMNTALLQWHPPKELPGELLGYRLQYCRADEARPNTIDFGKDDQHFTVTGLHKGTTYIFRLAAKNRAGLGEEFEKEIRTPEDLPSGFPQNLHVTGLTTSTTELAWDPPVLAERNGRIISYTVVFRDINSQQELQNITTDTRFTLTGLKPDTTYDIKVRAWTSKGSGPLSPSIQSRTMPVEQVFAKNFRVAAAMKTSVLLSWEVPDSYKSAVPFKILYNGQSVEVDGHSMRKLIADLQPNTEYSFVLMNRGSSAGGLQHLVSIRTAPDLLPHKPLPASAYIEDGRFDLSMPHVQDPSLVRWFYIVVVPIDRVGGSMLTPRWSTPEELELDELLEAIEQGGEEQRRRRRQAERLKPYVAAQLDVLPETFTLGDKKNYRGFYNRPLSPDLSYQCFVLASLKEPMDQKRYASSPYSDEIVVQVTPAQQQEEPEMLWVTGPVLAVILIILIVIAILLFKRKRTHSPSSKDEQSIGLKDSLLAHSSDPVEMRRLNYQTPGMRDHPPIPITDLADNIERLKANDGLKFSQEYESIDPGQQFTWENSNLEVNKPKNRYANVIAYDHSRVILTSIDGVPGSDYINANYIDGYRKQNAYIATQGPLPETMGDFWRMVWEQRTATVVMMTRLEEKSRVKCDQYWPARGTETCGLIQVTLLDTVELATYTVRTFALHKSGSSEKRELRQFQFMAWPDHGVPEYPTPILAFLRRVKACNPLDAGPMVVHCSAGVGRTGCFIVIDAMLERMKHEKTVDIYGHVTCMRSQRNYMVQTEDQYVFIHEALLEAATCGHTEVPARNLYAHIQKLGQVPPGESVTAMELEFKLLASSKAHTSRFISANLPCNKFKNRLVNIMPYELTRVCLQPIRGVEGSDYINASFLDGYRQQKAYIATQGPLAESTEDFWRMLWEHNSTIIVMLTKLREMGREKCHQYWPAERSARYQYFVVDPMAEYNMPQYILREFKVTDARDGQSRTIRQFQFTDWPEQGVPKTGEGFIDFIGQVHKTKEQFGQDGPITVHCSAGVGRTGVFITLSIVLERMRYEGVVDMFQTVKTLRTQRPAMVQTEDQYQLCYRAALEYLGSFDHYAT
Sequence of Receptor-type tyrosine-protein phosphatase C (CD45) (Homo sapiens) (P08575 whole entry, looked up): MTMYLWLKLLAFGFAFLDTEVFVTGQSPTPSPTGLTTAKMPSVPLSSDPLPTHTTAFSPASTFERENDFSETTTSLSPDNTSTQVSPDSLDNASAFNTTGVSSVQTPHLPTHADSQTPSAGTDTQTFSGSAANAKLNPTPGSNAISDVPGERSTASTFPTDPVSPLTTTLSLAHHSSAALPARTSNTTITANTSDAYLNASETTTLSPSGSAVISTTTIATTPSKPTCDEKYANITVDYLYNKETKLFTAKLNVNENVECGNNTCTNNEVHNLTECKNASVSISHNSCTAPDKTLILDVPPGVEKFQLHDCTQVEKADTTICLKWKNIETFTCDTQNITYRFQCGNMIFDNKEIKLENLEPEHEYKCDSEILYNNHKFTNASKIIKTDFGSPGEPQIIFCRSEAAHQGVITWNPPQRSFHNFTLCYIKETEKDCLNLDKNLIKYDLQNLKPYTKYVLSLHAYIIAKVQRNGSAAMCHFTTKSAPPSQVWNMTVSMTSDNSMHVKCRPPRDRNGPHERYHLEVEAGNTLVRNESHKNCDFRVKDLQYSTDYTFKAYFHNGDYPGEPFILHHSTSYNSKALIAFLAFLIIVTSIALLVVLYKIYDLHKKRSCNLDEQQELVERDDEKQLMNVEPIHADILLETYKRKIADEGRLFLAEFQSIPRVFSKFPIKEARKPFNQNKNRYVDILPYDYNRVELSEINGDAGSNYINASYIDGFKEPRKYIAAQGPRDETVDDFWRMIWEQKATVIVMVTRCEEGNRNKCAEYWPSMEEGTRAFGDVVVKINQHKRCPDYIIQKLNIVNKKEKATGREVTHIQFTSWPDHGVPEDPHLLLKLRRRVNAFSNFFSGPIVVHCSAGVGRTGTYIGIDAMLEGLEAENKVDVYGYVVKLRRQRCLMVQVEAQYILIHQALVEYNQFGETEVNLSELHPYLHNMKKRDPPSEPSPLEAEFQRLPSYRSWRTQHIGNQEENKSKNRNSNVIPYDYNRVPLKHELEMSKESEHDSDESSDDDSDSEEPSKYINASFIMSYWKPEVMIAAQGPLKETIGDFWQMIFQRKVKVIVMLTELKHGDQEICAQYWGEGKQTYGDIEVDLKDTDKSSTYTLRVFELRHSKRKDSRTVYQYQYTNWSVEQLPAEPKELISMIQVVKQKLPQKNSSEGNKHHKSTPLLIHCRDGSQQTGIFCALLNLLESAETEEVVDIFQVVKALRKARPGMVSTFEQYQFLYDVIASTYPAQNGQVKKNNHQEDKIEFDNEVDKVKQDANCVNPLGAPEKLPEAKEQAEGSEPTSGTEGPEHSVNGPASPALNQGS

Row | inhibition [1] [%] | inhibition [2] [%] | inhibition [3] [%] | inhibition [4] [%] | inhibition [5] [%] | inhibition [6] [%] | inhibition [7] [%] | inhibition [8] [%] | SMILES
1 | 15 | 20 | 10 | 55 | 90 | 55 | 50 | 95 | CC(Cn1c(=O)n2n(c1=O)C(C(=O)NC(Cc1ccc3sccc(=O)c3c1)C(=O)O)C=CC2CCCC(=O)O)c1ccccc1 (configuration not stated)
2 | 5 | 85 | 25 | 0 | 100 | 50 | 50 | 95 | O=C(O)CCCC1C=CC(C(=O)NC(Cc2ccc3sccc(=O)c3c2)C(=O)O)n2c(=O)n(Cc3cc(F)ccc3F)c(=O)n21 (configuration not stated)
3 | 20 | 10 | 0 | 40 | 20 | 70 | 10 | 70 | O=C(O)CCCC1C=CC(C(=O)NC(Cc2ccc3sccc(=O)c3c2)C(=O)O)n2c(=O)n(CC3CCCCC3)c(=O)n21 (configuration not stated)
4 | 20 | 85 | 50 | 75 | 100 | 70 | 70 | 100 | O=C(O)CCCC1C=CC(C(=O)NC(Cc2ccc3sccc(=O)c3c2)C(=O)O)n2c(=O)n(-c3ccc(Oc4ccccc4)cc3)c(=O)n21 (configuration not stated)
